Source: patent US9936701B2, “Herbicidal compounds” (Syngenta Participations AG, priority 2013, dated 2018)

Tests used:
[1] = system: a variety of test species; assay: Post-emergence herbicidal activity (glasshouse, sprayed after 8 days cultivation, evaluated after 13 days); type: in vivo; parameters: key: 5=total damage to plant; 0=no damage to plant; details: rate 1000 g/Ha, scale 0-5
How it was run: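 Foliar application to 8-day-old plants using a 0.5% Tween 20 acetone/water carrier; phytotoxicity is scored visually from 0 to 5 after 13 days of growth at 24/16 °C day/night.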

[2] = system: a variety of test species; assay: Pre-emergence herbicidal activity (glasshouse, sprayed one day after sowing, evaluated after 13 days); type: in vivo; parameters: key: 5=total damage to plant; 0=no damage to plant; details: application pre-emergence, rate 1000 g/Ha, scale 0-5
How it was run: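 Sow in pots of standard soil; after one day under glasshouse conditions, spray compound (acetone/water 50:50 formulation, 0.5% Tween 20, diluted in water). Grow on at 24/16 °C, 14 h light, 65% humidity with twice-daily watering. Assess at 13 days, 0–5 damage scale.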

Row | Structure (SMILES) | ABUTH (Abutilon theophrasti) damage score, application post-emergence [1] | ALOMY (Alopecurus myosuroides) damage score, application post-emergence [1] | AMARE (Amaranthus retroflexus) damage score, application post-emergence [1] | ECHCG (Echinochloa crus-galli) damage score, application post-emergence [1] | SETFA (Setaria faberi) damage score, application post-emergence [1] | ZEAMX (Zea mays) damage score, application post-emergence [1] | melting point [°C] | Pre-emergence herbicidal damage score, ABUTH [2] | Pre-emergence herbicidal damage score, ALOMY [2] | Pre-emergence herbicidal damage score, AMARE [2] | Pre-emergence herbicidal damage score, ECHCG [2] | Pre-emergence herbicidal damage score, SETFA [2] | Pre-emergence herbicidal damage score, ZEAMX [2]
1 | CCC(C)c1onc(N2C(=O)C(Cl)=C(C)C2O)c1C#N (stereo not shown) [A49] | 5 | 4 | 5 | 5 | 5 | 2 | 107 to 109 | 5 | 3 | 5 | 4 | 5 | 1
2 | CC1=C(Br)C(=O)N(c2noc(C(C)(C)C)c2C#N)C1O (stereo not shown) [A50] | 5 | 4 | 5 | 5 | 5 | 3 | 182 to 184 | 5 | 3 | 5 | 4 | 5 | 3
3 | CCCC1=C(Br)C(=O)N(c2noc(C(C)(C)C)c2C#N)C1O (stereo not shown) [A51] | 5 | 4 | 5 | 5 | 5 | 3 | 123 to 124 | 4 | 3 | 5 | 4 | 4 | 3
4 | CCCC1=C(Br)C(=O)N(c2cc(C(C)(C)C#N)on2)C1O (stereo not shown) [A52] | 5 | 5 | 5 | 5 | 5 | 5 | 80 to 82 | 5 | 4 | 5 | 5 | 5 | 4
5 | CC1=C(Br)C(=O)N(c2cc(C(C)(C)C#N)on2)C1O (stereo not shown) [A53] | 5 | 5 | 5 | 5 | 5 | 5 | 138 to 140 | 5 | 4 | 5 | 5 | 5 | 4
6 | CCCC1=C(Cl)C(=O)N(c2noc(C(C)(C)C)c2C#N)C1O (stereo not shown) [A54] | 5 | 5 | 5 | 5 | 5 | 5 | 133 to 135 | 5 | 4 | 5 | 5 | 5 | 4
7 | CCC1=C(Br)C(=O)N(c2noc(C(C)(C)C)c2C#N)C1O (stereo not shown) [A55] | 5 | 5 | 5 | 5 | 5 | 4 | 138 to 140 | 5 | 4 | 5 | 5 | 5 | 3
8 | CCC1=C(Cl)C(=O)N(c2noc(C(C)(C)C)c2C#N)C1O (stereo not shown) [A58] | 5 | 5 | 5 | 5 | 5 | 5 | 134 to 136 | 5 | 4 | 5 | 5 | 5 | 4
9 | CCC1=C(Cl)C(=O)N(c2noc(C(C)(C)CC)c2C#N)C1O (stereo not shown) [A60] | 5 | 4 | 5 | 5 | 5 | 2 | 110 to 112 | 5 | 3 | 5 | 4 | 5 | 3
10 | CC1=C(Br)C(=O)N(c2noc(C(C)C)c2C#N)C1O (stereo not shown) [A61] | 5 | 5 | 5 | 5 | 5 | 3 | 127 to 129 | 5 | 4 | 5 | 5 | 5 | 3
11 | CCC1=C(Br)C(=O)N(c2noc(C(C)C)c2C#N)C1O (stereo not shown) [A62] | 5 | 4 | 5 | 5 | 5 | 3 | 106 to 108 | 5 | 3 | 5 | 4 | 5 | 3
12 | CCC1=C(Cl)C(=O)N(c2noc(C(C)C)c2C#N)C1O (stereo not shown) [A63] | 5 | 4 | 5 | 5 | 5 | 3 | 93 to 95 | 5 | 3 | 5 | 5 | 5 | 3
13 | CCC1=C(Cl)C(=O)N(c2cc(C(C)(C)C#N)on2)C1O (stereo not shown) [A64] | 5 | 5 | 5 | 5 | 5 | 4 | 101 to 102 | 4 | 3 | 5 | 5 | 5 | 1
